± gives the uncertainty stated by the source.
Assay: xn = mol fraction of the nth substance listed

COCC(C)OCC(C)OC (stereo not given) + CCCO
298.15 K, 101 kPa
Settings	viscosity [mPa·s]
x1 = 0.0008	1.955 ± 0.015
x1 = 0.0409	1.775 ± 0.015

ClCCCl + CCCO
101 kPa
Settings	viscosity [mPa·s]
293.15 K, x2 = 0.9052	1.795 ± 0.023
298.15 K, x2 = 0.614	1.035 ± 0.014
303.15 K, x2 = 0.1182	0.6969 ± 0.018
303.15 K, x2 = 0.2163	0.6888 ± 0.018
303.15 K, x2 = 0.5579	0.9007 ± 0.021
303.15 K, x2 = 0.6721	1.034 ± 0.023
303.15 K, x2 = 0.836	1.328 ± 0.028
313.15 K, x2 = 0.1182	0.6089 ± 0.017
313.15 K, x2 = 0.2163	0.6167 ± 0.017
313.15 K, x2 = 0.326	0.6293 ± 0.018
313.15 K, x2 = 0.5579	0.7563 ± 0.019
313.15 K, x2 = 0.6721	0.8514 ± 0.021
313.15 K, x2 = 0.836	1.071 ± 0.024
323.15 K, x2 = 0.1182	0.5483 ± 0.017
323.15 K, x2 = 0.2163	0.5488 ± 0.017
323.15 K, x2 = 0.326	0.5542 ± 0.017
323.15 K, x2 = 0.5579	0.6484 ± 0.018
323.15 K, x2 = 0.6721	0.721 ± 0.019
323.15 K, x2 = 0.836	0.8872 ± 0.021

ClCCl + CCCO
Settings	viscosity [mPa·s]
298.15 K, 101 kPa, x2 = 0.05	0.48 ± 0.006
298.15 K, 101 kPa, x2 = 0.1	0.535 ± 0.007
298.15 K, 101 kPa, x2 = 0.1002	0.44 ± 0.011
298.15 K, 101 kPa, x2 = 0.15	0.588 ± 0.007
298.15 K, 101 kPa, x2 = 0.1991	0.487 ± 0.011
298.15 K, 101 kPa, x2 = 0.2	0.639 ± 0.007
298.15 K, 101 kPa, x2 = 0.2496	0.496 ± 0.011
298.15 K, 101 kPa, x2 = 0.25	0.689 ± 0.007
298.15 K, 101 kPa, x2 = 0.2978	0.528 ± 0.011
298.15 K, 101 kPa, x2 = 0.3	0.74 ± 0.008
298.15 K, 101 kPa, x2 = 0.35	0.792 ± 0.008
298.15 K, 101 kPa, x2 = 0.3938	0.6 ± 0.011
298.15 K, 101 kPa, x2 = 0.4	0.846 ± 0.008
298.15 K, 101 kPa, x2 = 0.45	0.904 ± 0.009
298.15 K, 101 kPa, x2 = 0.4603	0.668 ± 0.011
298.15 K, 101 kPa, x2 = 0.498	0.716 ± 0.011
298.15 K, 101 kPa, x2 = 0.5	0.966 ± 0.009
298.15 K, 101 kPa, x2 = 0.55	1.032 ± 0.009
298.15 K, 101 kPa, x2 = 0.589	0.843 ± 0.012
298.15 K, 101 kPa, x2 = 0.6	1.104 ± 0.01
298.15 K, 101 kPa, x2 = 0.65	1.182 ± 0.01
298.15 K, 101 kPa, x2 = 0.6943	1.043 ± 0.013
298.15 K, 101 kPa, x2 = 0.7	1.266 ± 0.011
298.15 K, 101 kPa, x2 = 0.75	1.357 ± 0.011
298.15 K, 101 kPa, x2 = 0.7977	1.289 ± 0.014
298.15 K, 101 kPa, x2 = 0.8	1.455 ± 0.012
298.15 K, 101 kPa, x2 = 0.85	1.56 ± 0.013
298.15 K, 101 kPa, x2 = 0.8955	1.57 ± 0.015
298.15 K, 101 kPa, x2 = 0.9	1.673 ± 0.013
298.15 K, 101 kPa, x2 = 0.95	1.794 ± 0.014
303.15 K, 101.3 kPa, x2 = 0.0434	0.401 ± 0.011
303.15 K, 101.3 kPa, x2 = 0.0863	0.4085 ± 0.011
303.15 K, 101.3 kPa, x2 = 0.1371	0.423 ± 0.011
303.15 K, 101.3 kPa, x2 = 0.1943	0.445 ± 0.012
303.15 K, 101.3 kPa, x2 = 0.2863	0.4936 ± 0.013
303.15 K, 101.3 kPa, x2 = 0.3859	0.5655 ± 0.015
303.15 K, 101.3 kPa, x2 = 0.4983	0.6748 ± 0.018
303.15 K, 101.3 kPa, x2 = 0.5806	0.7794 ± 0.021
303.15 K, 101.3 kPa, x2 = 0.7402	1.059 ± 0.028
303.15 K, 101.3 kPa, x2 = 0.828	1.257 ± 0.033
303.15 K, 101.3 kPa, x2 = 0.9016	1.447 ± 0.038
303.15 K, 101.3 kPa, x2 = 0.9307	1.606 ± 0.042
303.15 K, 101.3 kPa, x2 = 0.9459	1.57 ± 0.041
303.15 K, 101.3 kPa, x2 = 0.95	1.643 ± 0.043

CCC[N+](C)(C)C.O=S(=O)([N-]S(=O)(=O)C(F)(F)F)C(F)(F)F + CCC[N+]1(C)CCCC1.O=S(=O)([N-]S(=O)(=O)C(F)(F)F)C(F)(F)F
viscosity [mPa·s], 101.3 kPa
Settings	x1 = 0.2	x1 = 0.4	x1 = 0.6	x1 = 0.8
293.15 K	78.4 ± 16	81.2 ± 16	88.3 ± 18	93.6 ± 19
298.15 K	62.8 ± 13	64.9 ± 13	–	73.8 ± 15
303.15 K	51.1 ± 10	52.5 ± 10	56.3 ± 11	59.2 ± 12

CCC[N+](C)(C)C.O=S(=O)([N-]S(=O)(=O)C(F)(F)F)C(F)(F)F + CCC[N+]1(C)CCCCC1.O=S(=O)([N-]S(=O)(=O)C(F)(F)F)C(F)(F)F
101.3 kPa
Settings	viscosity [mPa·s]
298.15 K, x1 = 0.8	88.1 ± 18
303.15 K, x1 = 0.8	69.7 ± 14
308.15 K, x1 = 0.2	78.3 ± 16
308.15 K, x1 = 0.6	63.6 ± 13
308.15 K, x1 = 0.8	56.2 ± 11
313.15 K, x1 = 0.2	62.4 ± 12
313.15 K, x1 = 0.4	56.9 ± 11
313.15 K, x1 = 0.6	51.5 ± 10
318.15 K, x1 = 0.2	50.5 ± 10

C1CCC2=[NH+]CCCN2CC1.c1c[n-]cn1 + CCO
298.15 K, 100 kPa
Settings	viscosity [mPa·s]
x1 = 0.0998	1.95 ± 0.081
x1 = 0.1996	3.268 ± 0.14
x1 = 0.2995	5.15 ± 0.21
x1 = 0.3994	7.752 ± 0.32
x1 = 0.4994	10.78 ± 0.45
x1 = 0.5994	14.23 ± 0.6
x1 = 0.6995	19.14 ± 0.81
x1 = 0.7996	23.96 ± 1
x1 = 0.8998	28.78 ± 1.2

CC(=O)O + CCO
298.15 K, 101.33 kPa
Settings	viscosity [mPa·s]
x2 = 0.0808	1.246 ± 0.012
x2 = 0.2919	1.327 ± 0.013
x2 = 0.3542	1.335 ± 0.013
x2 = 0.5697	1.24 ± 0.012
x2 = 0.6571	1.195 ± 0.012
x2 = 0.75	1.15 ± 0.011

CCC(=O)[O-].CC[NH+]1CCNCC1 + CCO
Settings	viscosity [mPa·s]
298.15 K, 101 kPa, x2 = 0.3033	75.85 ± 1.4

ClCCCl + CCO
viscosity [mPa·s], 101 kPa
Settings	303.15 K	313.15 K	323.15 K
x1 = 0.1495	0.842 ± 0.084	–	–
x1 = 0.3026	0.736 ± 0.074	–	–
x1 = 0.4507	0.681 ± 0.068	–	–
x1 = 0.6007	0.662 ± 0.066	–	–
x1 = 0.752	0.659 ± 0.066	–	–
x1 = 0.8706	0.659 ± 0.066	–	–
x2 = 0.064	0.6974 ± 0.018	0.6126 ± 0.017	0.5529 ± 0.016
x2 = 0.1215	0.6779 ± 0.018	0.5938 ± 0.017	0.5336 ± 0.016
x2 = 0.2295	0.6654 ± 0.018	0.5787 ± 0.017	0.512 ± 0.016
x2 = 0.3279	0.6668 ± 0.017	0.5767 ± 0.016	0.5115 ± 0.016
x2 = 0.3912	0.6702 ± 0.017	0.5806 ± 0.016	0.5107 ± 0.016
x2 = 0.4726	0.6873 ± 0.018	0.5896 ± 0.016	0.5161 ± 0.016
x2 = 0.5989	0.7253 ± 0.018	0.6178 ± 0.017	0.536 ± 0.016
x2 = 0.752	0.7907 ± 0.018	0.6671 ± 0.017	0.5723 ± 0.016
x2 = 0.8819	0.8746 ± 0.019	0.7374 ± 0.018	0.628 ± 0.017

ClCCl + CCO
303.15 K, 101.3 kPa
Settings	viscosity [mPa·s]
x2 = 0.0625	0.395 ± 0.011
x2 = 0.1074	0.398 ± 0.011
x2 = 0.1915	0.4103 ± 0.011
x2 = 0.2935	0.4387 ± 0.012
x2 = 0.4162	0.4914 ± 0.013
x2 = 0.5331	0.5595 ± 0.015
x2 = 0.6811	0.6721 ± 0.018
x2 = 0.7823	0.767 ± 0.02
x2 = 0.8482	0.8337 ± 0.022
x2 = 0.9067	0.8949 ± 0.024
x2 = 0.9571	0.9476 ± 0.025

Reference: the CheMixHub viscosity set
